Test results taken from ChEMBL document CHEMBL1158147, “Ultraviolet-mediated cytotoxic activity of phenylheptatriyne from Bidens pilosa L” (J Nat Prod, 1979).
The source made the active and inactive calls. No cut-off for these calls is given here.

What was measured:
Candida albicans [1] = assay: Phototoxicity against Candida albicans at 5 ug/disk in presence of long wave UV light; format: functional, organism-based
Microsporum canis [2] = assay: Phototoxicity against Microsporum canis at 5 ug/disk in dark; format: functional, organism-based
Kocuria rosea = assay: Phototoxicity against Micrococcus roseus UBC 289 at 5 ug/disk in presence of long wave UV light; format: functional, organism-based
DNA [3] = assay: Photochemical activity against denatured calf thymus DNA at 10 ug after UV irradiation with 5.33 Joules/cm'2 for 60 mins by hyperchromicity test; format: nucleic-acid assay; settings: Bos taurus
[4] = Effect on human skin fibroblast cells assessed as viable cell count at 10 ug/ml in petroleum ether after 3.53 Joules/cm UV irradiation for 40 mins by trypan blue exclusion method; format: ADME, cell-based; settings: read-out: Activity
Proteus mirabilis = assay: Phototoxicity against Proteus mirabilis UBC 5 at 5 ug/disk in dark; format: functional, organism-based
DNA [5] = assay: Photochemical activity against denatured calf thymus DNA at 10 ug in dark after 30 mins by hyperchromicity test; format: nucleic-acid assay; settings: Bos taurus
Enterococcus faecalis [6] = assay: Phototoxicity against Streptococcus faecalis at 5 ug/disk in presence of cool-white fluorescent light; format: functional, organism-based
[7] = tested on: Staphylococcus epidermidis; assay: Phototoxicity against Staphylococcus albus at 5 ug/disk in presence of long wave UV light; format: functional, organism-based
Microsporum canis [8] = assay: Phototoxicity against Microsporum canis at 5 ug/disk in presence of cool-white fluorescent light; format: functional, organism-based
Candida albicans [9] = assay: Phototoxicity against Candida albicans at 2.5 ug/disk after UV irradiation for 15 mins; format: functional; settings: light or radiation study, 0.25 h, read-out: IZ
Enterococcus faecalis [10] = assay: Phototoxicity against Streptococcus faecalis at 5 ug/disk in presence of long wave UV light; format: functional, organism-based
DNA [11] = assay: Photochemical activity against denatured calf thymus DNA 10 ug after UV irradiation with 2.67 Joules/cm'2 for 30 mins at by hyperchromicity test; format: nucleic-acid assay; settings: Bos taurus
[12] = Effect on human skin fibroblast cells assessed as viable cell count at 10 ug/ml in petroleum ether after 5.33 Joules/cm UV irradiation for 60 mins by trypan blue exclusion method; format: ADME, cell-based; settings: read-out: Activity
Sporobolomyces = assay: Phototoxicity against Sporobolomyces sp. Y138 at 5 ug/disk in dark; format: functional, organism-based
Enterococcus faecalis [13] = assay: Phototoxicity against Streptococcus fecalis at 5 ug/disk in dark; format: functional, organism-based
[14] = tested on: Trichophyton mentagrophytes; assay: Phototoxicity against Trichophyton mentagrophytes at 5 ug/disk in presence of cool-white fluorescent light; format: functional, organism-based
Bacillus subtilis = assay: Phototoxicity against Bacillus subtilis at 5 ug/disk in presence of cool-white fluorescent light; format: functional, organism-based
Saccharomyces cerevisiae [15] = assay: Effect on Saccharomyces cerevisiae assessed as viable cell count at 10 ug/ml in petroleum ether after 16 Joules/cm'2 UV irradiation for 180 mins; format: functional
Saccharomyces cerevisiae [16] = assay: Phototoxicity against Saccharomyces cerevisiae at 2.5 ug/disk after UV irradiation for 180 mins; format: functional, organism-based
Saccharomyces cerevisiae [17] = assay: Phototoxicity against Saccharomyces cerevisiae at 5 ug/disk in dark; format: functional, organism-based
Saccharomyces cerevisiae [18] = assay: Effect on Saccharomyces cerevisiae assessed as viable cell count at 10 ug/ml in petroleum ether in dark after 30 mins; format: functional
DNA [19] = assay: Photochemical activity against denatured calf thymus DNA at in dark after 180 mins by hyperchromicity test; format: nucleic-acid assay; settings: Bos taurus
DNA [20] = assay: Photochemical activity against denatured calf thymus DNA at 10 ug by hyperchromicity test; format: nucleic-acid assay; settings: Bos taurus
Pseudomonas fluorescens = assay: Phototoxicity against Pseudomonas fluorescens at 5 ug/disk in dark; format: functional, organism-based

## CC#CC#CC#Cc1ccccc1 [PHENYLHEPTATRIYNE]
Candida albicans [1]
  Activity: Active
Microsporum canis [2]
  Activity: inactive
Kocuria rosea
  Activity: Active
DNA [3]
  Activity: 0.02
[4]
  viability at 40 min, 10 ug/ml: 50%
Proteus mirabilis
  Activity: inactive
DNA [5]
  Activity: 0.17
Enterococcus faecalis [6]
  Activity: Active
[7]
  Activity: Active
Microsporum canis [8]
  Activity: Active
Candida albicans [9]
  zone of inhibition at 2.5 µg/disc: 11 mm
Enterococcus faecalis [10]
  Activity: Active
DNA [11]
  Activity: 0.03
[12]
  viability at 1 h, 10 ug/ml: 0%
Sporobolomyces
  Activity: inactive
Enterococcus faecalis [13]
  Activity: inactive
[14]
  Activity: Active
Bacillus subtilis
  Activity: Active
Saccharomyces cerevisiae [15]
  Activity: 0
Saccharomyces cerevisiae [16]
  Activity: inactive
Saccharomyces cerevisiae [17]
  Activity: inactive
Saccharomyces cerevisiae [18]
  Activity: 35.8
DNA [19]
  Activity: 0.18
DNA [20]
  Activity: 0.18
Pseudomonas fluorescens
  Activity: inactive
